Assay results as given in ChEMBL document CHEMBL1153727, “Crotonkinensins A and B, diterpenoids from the Vietnamese medicinal plant Croton tonkinensis” (J Nat Prod, 2009).
Activity calls are given as the source filed them. The rule behind the calls is not given here.

What was measured:
[1] = test system: RAW264.7; assay: Antiinflammatory activity in LPS-stimulated mouse RAW264.7 cells assessed as inhibition of beta-gal-tagged COX2 promoter activity pretreated 30 mins before LPS administration measured after 24 hrs by luciferase reporter gene assay relative to control; type: functional, cell-based
[2] = test system: RAW264.7; assay: Antiinflammatory activity in LPS-stimulated mouse RAW264.7 cells assessed as inhibition of COX2 protein expression at 10 to 100 uM pretreated 30 mins before LPS administration measured after 24 hrs by Western blot analysis; type: functional, cell-based

| Structure (SMILES) | IC50 [1] | inhibition [1] | inhibition [2] |
| --- | --- | --- | --- |
| C=C1C(=O)[C@@]23[C@@H]4CC5=C(C(=O)CC5(C)C)[C@@](C)(O4)[C@@H]2CC[C@@H]1[C@H]3O [CROTONKINENSIN A] | 7.14 µM | Dose-dependent effect | Active |
| C=C1C(=O)[C@@]23[C@@H]4C[C@H]5C(=CCC5(C)C)[C@@](C)(O4)[C@@H]2CC[C@@H]1[C@H]3O [CROTONKINENSIN B] | 5.49 µM | Dose-dependent effect | Active |
